# Experimental data taken from patent publication US20170313758A1, “Polypeptides for the Treatment of Angiogenesis or Lymphangiogenesis-Related Diseases” (INSERM (Institut National de la Sante et de la Recherche …, priority 2014, published 2017).
# B1: EMMPRIN D136A (receptor)
# chain: AAGTVFTTVEDLGSKILLTCSLNDSATEVTGHRWLKGGVVLKEDALPGQKTEFKVDSDDQWGEYSCVFPPEPMGTANIQLHGPPRVKAVKSSEHINEGETAMLVCKSESVPPVTAWAWYKITDSEDKALMNGSESRFFVSSSQGRSELHIENLNMEADPGQYRCNGTSSKGSDQAIITLRVCSHLAALWPFLGIVAEVLVLVTIIFIYEKRRKPEDVLDDDDAGSAPLKSSGQHQNDKGKNVRQRNSS
# notes: Full-length EMMPRIN cDNA mutant transfected into BLM-EMMPRIN-miRNA cells; also called control D136A; negative control D136A mutant
# Columns and labels:
# M10 melanoma cells = test: Modified Boyden chamber invasion assay, M10 melanoma cells; format: cell-based, human; settings: 500 nM, compared to control PC-treated cells, mean, FIG. 14
# Procedure: Human microvascular endothelial (HMEC) cells line derived from dermal microvasculature (T. Lawley, Emory University, Atlanta, GA) were maintained in MCDB-131 medium (Gibco, Invitogen) with 10% fetal bovine serum (FBS) (Invitrogen), 2 ml glutamine (Invitrogen), 10 ng/ml endothelial growth factor (Upstate Biotechnology/Millipore), and 1 μg/ml hydrocortisone (Sigma-Aldrich). Primary melanoma M10 cells, established from patient primary nodular melanoma were maintained in RPMI medium (Gibco, Invitogen) with 10% FBS, Hepes 1 M, pyruvate Nas, and glutamine (Invitrogen). Human breast carcinoma MDA-MB-231 cells were maintained in Dulbecco's modified Eagle's medium (DMEM) (Gibco, Invitogen) with 10% FBS (Invitrogen) and 2m1 glutamine (Invitrogen). Melanoma BLM cells (American Type Culture Collection (ATCC Manassas, Va.)) were maintained in DMEM containing 4.5 g/l glucose, 10% FBS, 100 U/ml penicillin and […] streptomycin. […]
# The in vitro migration (on uncoated filters) and invasion (on coated filters with matrigel, BD Bioscience) were performed using a modified Boyden chamber in 24-well plates and […] pore filter inserts (BD Bioscience). After 24h of incubation, cells were fixed, stained with crystal violet 0.5% and counted under a light microscope. […]
# [1] = target: T1, EMMPRIN/VEGFR-2 interaction (Homo sapiens, UniProt P35968); test: Immunoprecipitation of EMMPRIN/VEGFR-2 interaction in treated cells; format: cell-based; settings: FIG. 15
# T1 construct: endogenous in cells; HMEC and M10 are the cells used in the neighbouring peptide experiments
# Procedure: For immunoprecipitation, cell lysates were incubated with antibodies against targeted proteins and Protein G-sepharose beads (Sigma). Immunoprecipitated proteins were subjected to sodium dodecyl sulphate-polyacrylamide gel electrophoresis then transferred to Nitrocellulose membranes and probed with anti-EMMPRIN mAb (555961, BD-Pharmingen), anti-VEGF (C-1) mAb (Sc-7269, Santa Cruz), anti-VEGFR-2 rabbit pAb (Sc-504, Santa Cruz-) or anti-pVEGFR-2 (Tyr 1175) rabbit mAb (2478, Cell Signaling). The proteins were visualized with ECL reagent (Pierce), and their expression was normalized relative to total cell lysate protein concentration.
# (§1) No effect on ERK phosphorylation could be observed when the cells were treated with PC (FIGS. 15 and 16).
# HMEC endothelial cells = test: MTT assay, proliferation of HMEC endothelial cells; format: cell-based, human; settings: treatment for 48 h, FIG. 13
# Procedure: Human microvascular endothelial (HMEC) cells line derived from dermal microvasculature (T. Lawley, Emory University, Atlanta, GA) were maintained in MCDB-131 medium (Gibco, Invitogen) with 10% fetal bovine serum (FBS) (Invitrogen), 2 ml glutamine (Invitrogen), 10 ng/ml endothelial growth factor (Upstate Biotechnology/Millipore), and 1 μg/ml hydrocortisone (Sigma-Aldrich). Primary melanoma M10 cells, established from patient primary nodular melanoma were maintained in RPMI medium (Gibco, Invitogen) with 10% FBS, Hepes 1 M, pyruvate Nas, and glutamine (Invitrogen). Human breast carcinoma MDA-MB-231 cells were maintained in Dulbecco's modified Eagle's medium (DMEM) (Gibco, Invitogen) with 10% FBS (Invitrogen) and 2m1 glutamine (Invitrogen). Melanoma BLM cells (American Type Culture Collection (ATCC Manassas, Va.)) were maintained in DMEM containing 4.5 g/l glucose, 10% FBS, 100 U/ml penicillin and […] streptomycin. HEK293T cells (ATCC) were cultured in DMEM medium (Gibco, Invitogen) supplemented with 10% FBS (Invitrogen), 100 U/ml penicillin, […] streptomycin and 2 ml glutamine (Invitrogen).
# As VEGFR-2 has been implicated in regulation of endothelial cells migration/invasion and proliferation processes, we first investigated the effect of EMMPRIN inhibitor peptide (PI) on endothelial cell proliferation. […]
# ERK phosphorylation = test: ERK activation signalling (ERK phosphorylation) in treated cells; format: cell-based; settings: FIG. 16
# Procedure: as §1
# VEGFR-2 = target: T2, VEGFR-2 (human, UniProt P35968 20-1356); test: VEGFR-2 immunoprecipitation, EMMPRIN western blot, transfected BLM-EMMPRIN-miRNA cells
# T2 construct: Endogenous receptor of human cells (HMEC, M10, MDA-MB-231, BLM); the whole entry is named; also called KDR
# Procedure: For immunoprecipitation, cell lysates were incubated with antibodies against targeted proteins and Protein G-sepharose beads (Sigma). […] The proteins were visualized with ECL reagent (Pierce), and their expression was normalized relative to total cell lysate protein concentration.
# T1 sequence (P35968 20-1356): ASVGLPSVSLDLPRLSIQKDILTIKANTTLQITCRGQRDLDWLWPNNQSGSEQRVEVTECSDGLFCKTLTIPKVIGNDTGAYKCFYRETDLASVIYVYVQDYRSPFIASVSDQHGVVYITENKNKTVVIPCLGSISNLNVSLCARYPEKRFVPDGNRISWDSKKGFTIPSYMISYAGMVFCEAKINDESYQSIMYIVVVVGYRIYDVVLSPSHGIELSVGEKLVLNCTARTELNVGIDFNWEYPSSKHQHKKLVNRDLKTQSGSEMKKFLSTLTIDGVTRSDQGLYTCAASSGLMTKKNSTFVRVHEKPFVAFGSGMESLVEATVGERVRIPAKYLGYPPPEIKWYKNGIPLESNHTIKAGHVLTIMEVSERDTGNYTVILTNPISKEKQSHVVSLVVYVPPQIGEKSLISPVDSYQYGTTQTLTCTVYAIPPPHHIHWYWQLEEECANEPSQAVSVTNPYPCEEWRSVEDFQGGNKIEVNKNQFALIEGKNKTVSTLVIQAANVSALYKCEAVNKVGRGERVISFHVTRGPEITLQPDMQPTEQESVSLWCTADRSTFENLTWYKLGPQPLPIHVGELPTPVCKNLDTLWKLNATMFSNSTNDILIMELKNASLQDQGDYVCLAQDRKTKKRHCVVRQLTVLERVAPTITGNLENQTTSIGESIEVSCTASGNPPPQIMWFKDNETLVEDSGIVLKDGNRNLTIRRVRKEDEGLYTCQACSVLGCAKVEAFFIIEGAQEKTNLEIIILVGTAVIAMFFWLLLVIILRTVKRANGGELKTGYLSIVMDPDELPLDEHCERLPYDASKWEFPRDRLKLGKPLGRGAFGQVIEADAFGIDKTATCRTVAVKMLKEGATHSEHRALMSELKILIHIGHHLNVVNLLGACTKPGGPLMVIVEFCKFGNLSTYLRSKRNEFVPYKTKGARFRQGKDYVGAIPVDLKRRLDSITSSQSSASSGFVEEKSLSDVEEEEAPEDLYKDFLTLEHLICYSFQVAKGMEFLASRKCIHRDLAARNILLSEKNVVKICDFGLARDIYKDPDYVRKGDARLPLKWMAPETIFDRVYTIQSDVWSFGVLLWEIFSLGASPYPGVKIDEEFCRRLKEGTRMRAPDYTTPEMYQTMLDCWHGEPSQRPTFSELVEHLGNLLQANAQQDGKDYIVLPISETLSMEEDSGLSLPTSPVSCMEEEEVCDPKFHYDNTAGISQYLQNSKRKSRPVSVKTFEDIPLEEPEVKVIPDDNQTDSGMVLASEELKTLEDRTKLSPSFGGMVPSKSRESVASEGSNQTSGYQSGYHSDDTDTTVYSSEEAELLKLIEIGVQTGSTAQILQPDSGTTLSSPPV
# T2 sequence (P35968 20-1356 limits assumed): as the sequence (P35968 20-1356) above
Molecule,decrease in M10 cell invasion capacity (M10 melanoma cells),EMMPRIN/VEGFR-2 interaction ([1]; 100 nM),EMMPRIN/VEGFR-2 interaction ([1]; 500 nM),inhibition of proliferation of HMEC cells (HMEC endothelial cells),ERK phosphorylation (ERK phosphorylation),binding result (VEGFR-2)
PI: EMMPRIN peptide inhibitor (PI); sequence not specified in the text,60%,able to decrease EMMPRIN/VEGFR-2 interaction,able to decrease EMMPRIN/VEGFR-2 interaction,approx. 50%,significant decrease,–
B1,–,–,–,–,–,binds
